According to the supplement of paper PMC10307832:

Columns and labels:
Assay in all cases: relative viability (nuclei count vs DMSO), 5 days (fraction); higher = more cells survive
A-427 = system: A-427
Summary of the method: (§1)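 Values are medians from duplicate plates. Each reflects relative viability, defined as the nuclei count of treated wells over that of vehicle wells. Lung cancer cell lines in 1536-well plates were pin-tool dosed one day after seeding with one drug alone or with a fixed anchor-drug dose plus five library-drug doses (not always all listed) in √10 steps, then fixed, stained and imaged at 4× after 5 days.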

ABC-1 = system: ABC-1
Summary of the method: as §1

COR-L23 = system: COR-L23
Summary of the method: as §1

EMC-BAC-2 = system: EMC-BAC-2
Summary of the method: as §1

HARA = system: HARA
Summary of the method: as §1

HOP-62 = system: HOP-62
Summary of the method: as §1

LK-2 = system: LK-2
Summary of the method: as §1

LXF-289 = system: LXF-289
Summary of the method: as §1

NCI-H1792 = system: NCI-H1792
Summary of the method: as §1

NCI-H1793 = system: NCI-H1793
Summary of the method: as §1

NCI-H1944 = system: NCI-H1944
Summary of the method: as §1

NCI-H1993 = system: NCI-H1993
Summary of the method: as §1

NCI-H2009 = system: NCI-H2009
Summary of the method: as §1

NCI-H2228 = system: NCI-H2228
Summary of the method: as §1

NCI-H3122 = system: NCI-H3122
Summary of the method: as §1

NCI-H596 = system: NCI-H596
Summary of the method: as §1

NCI-H727 = system: NCI-H727
Summary of the method: as §1

PC-3 [JPC-3] = system: PC-3 [JPC-3]
Summary of the method: as §1

SK-LU-1 = system: SK-LU-1
Summary of the method: as §1

SK-MES-1 = system: SK-MES-1
Summary of the method: as §1

SW 1573 = system: SW 1573
Summary of the method: as §1

## Oc1nc(-c2ccc(C(F)(F)F)cc2)nc2c1CSCC2 [XAV939] + C[C@]1(O)C[C@@H](c2nc(-c3ccc4ccc(-c5ccccc5)nc4c3)c3c(N)nccn32)C1 [Linsitinib] (partner 1 µM)
A-427; first compound 0.08 µM
  relative viability: 1.02
A-427; first compound 0.253 µM
  relative viability: 1.12
A-427; first compound 0.8 µM
  relative viability: 1.08
A-427; first compound 2.53 µM
  relative viability: 1.08
ABC-1; first compound 0.08 µM
  relative viability: 0.915
ABC-1; first compound 0.253 µM
  relative viability: 0.733
ABC-1; first compound 0.8 µM
  relative viability: 0.809
ABC-1; first compound 2.53 µM
  relative viability: 0.315
COR-L23; first compound 0.08 µM
  relative viability: 0.962
COR-L23; first compound 0.253 µM
  relative viability: 0.785
COR-L23; first compound 0.8 µM
  relative viability: 0.969
COR-L23; first compound 2.53 µM
  relative viability: 0.809
EMC-BAC-2; first compound 0.08 µM
  relative viability: 0.868
EMC-BAC-2; first compound 0.253 µM
  relative viability: 0.705
EMC-BAC-2; first compound 0.8 µM
  relative viability: 0.711
EMC-BAC-2; first compound 2.53 µM
  relative viability: 0.511
HARA; first compound 0.08 µM
  relative viability: 1.25
HARA; first compound 0.253 µM
  relative viability: 0.414
HARA; first compound 0.8 µM
  relative viability: 0.779
HARA; first compound 2.53 µM
  relative viability: 0.956
HOP-62; first compound 0.08 µM
  relative viability: 1.01
HOP-62; first compound 0.253 µM
  relative viability: 0.882
HOP-62; first compound 0.8 µM
  relative viability: 0.954
HOP-62; first compound 2.53 µM
  relative viability: 0.939
LK-2; first compound 0.08 µM
  relative viability: 0.514
LK-2; first compound 0.253 µM
  relative viability: 0.499
LK-2; first compound 0.8 µM
  relative viability: 0.42
LK-2; first compound 2.53 µM
  relative viability: 0.457
LXF-289; first compound 0.08 µM
  relative viability: 0.991
LXF-289; first compound 0.253 µM
  relative viability: 0.954
LXF-289; first compound 0.8 µM
  relative viability: 0.975
LXF-289; first compound 2.53 µM
  relative viability: 0.952
NCI-H1792; first compound 0.08 µM
  relative viability: 0.672
NCI-H1792; first compound 0.253 µM
  relative viability: 0.537
NCI-H1792; first compound 0.8 µM
  relative viability: 0.557
NCI-H1792; first compound 2.53 µM
  relative viability: 0.453
NCI-H1793; first compound 0.08 µM
  relative viability: 0.964
NCI-H1793; first compound 0.253 µM
  relative viability: 0.709
NCI-H1793; first compound 0.8 µM
  relative viability: 0.774
NCI-H1793; first compound 2.53 µM
  relative viability: 0.719
NCI-H1944; first compound 0.08 µM
  relative viability: 1.22
NCI-H1944; first compound 0.253 µM
  relative viability: 1.12
NCI-H1944; first compound 0.8 µM
  relative viability: 1.24
NCI-H1944; first compound 2.53 µM
  relative viability: 1.26
NCI-H1993; first compound 0.8 µM
  relative viability: 0.754
NCI-H1993; first compound 2.53 µM
  relative viability: 0.719
NCI-H2009; first compound 0.08 µM
  relative viability: 1.19
NCI-H2009; first compound 0.253 µM
  relative viability: 0.904
NCI-H2009; first compound 0.8 µM
  relative viability: 1.17
NCI-H2009; first compound 2.53 µM
  relative viability: 1.09
NCI-H2228; first compound 0.08 µM
  relative viability: 0.684
NCI-H2228; first compound 0.253 µM
  relative viability: 0.683
NCI-H2228; first compound 0.8 µM
  relative viability: 0.81
NCI-H2228; first compound 2.53 µM
  relative viability: 0.551
NCI-H3122; first compound 0.08 µM
  relative viability: 1.02
NCI-H3122; first compound 0.253 µM
  relative viability: 0.986
NCI-H3122; first compound 0.8 µM
  relative viability: 0.951
NCI-H3122; first compound 2.53 µM
  relative viability: 0.557
NCI-H596; first compound 0.08 µM
  relative viability: 1.09
NCI-H596; first compound 0.253 µM
  relative viability: 1.02
NCI-H596; first compound 0.8 µM
  relative viability: 1.03
NCI-H596; first compound 2.53 µM
  relative viability: 0.924
NCI-H727; first compound 0.08 µM
  relative viability: 0.315
NCI-H727; first compound 0.253 µM
  relative viability: 0.246
NCI-H727; first compound 0.8 µM
  relative viability: 0.233
NCI-H727; first compound 2.53 µM
  relative viability: 0.372
PC-3 [JPC-3]; first compound 0.08 µM
  relative viability: 0.916
PC-3 [JPC-3]; first compound 0.253 µM
  relative viability: 0.863
PC-3 [JPC-3]; first compound 0.8 µM
  relative viability: 1
PC-3 [JPC-3]; first compound 2.53 µM
  relative viability: 0.874
SK-LU-1; first compound 0.08 µM
  relative viability: 1.2
SK-LU-1; first compound 0.253 µM
  relative viability: 1.03
SK-LU-1; first compound 0.8 µM
  relative viability: 1.02
SK-LU-1; first compound 2.53 µM
  relative viability: 1.07
SK-MES-1; first compound 0.08 µM
  relative viability: 1.1
SK-MES-1; first compound 0.253 µM
  relative viability: 0.896
SK-MES-1; first compound 0.8 µM
  relative viability: 1.03
SK-MES-1; first compound 2.53 µM
  relative viability: 0.965
SW 1573; first compound 0.08 µM
  relative viability: 0.78
SW 1573; first compound 0.253 µM
  relative viability: 0.675
SW 1573; first compound 0.8 µM
  relative viability: 0.739
SW 1573; first compound 2.53 µM
  relative viability: 0.635
